From patent publication US4665087A, “1-(carbamyl, thiocarbamyl, and iminocarbamyl)-indoline derivatives” (Ciba-Geigy Corporation, priority 1985, dated 1987)
Counter-ions that a name gives are not always drawn.

Key:
[1] = system: angiotensin I pressor response; test: inhibition of the angiotensin I pressor response in anesthetized normotensive rats; assay type: in vivo; conditions: rat, 1.0 mg/kg i.v.
Description: The enzyme renin normally causes specific hydrolysis of the circulating protein renin substrate. This hydrolysis generates angiotensin I, which is further hydrolyzed by the action of said converting enzyme to the potent vasoconstrictor angiotensin II. The inhibition of said enzyme prevents the generation of angiotensin II from I and, therefore, attenuates any pressure response following an angiotensin I challenge.
The corresponding in vivo test is performed with male, normotensive rats, which are anesthetized with 100-120 mg/kg i.p. of sodium ethyl-(1-methylpropyl)-malonylthiourea. A femoral artery and saphenous vein are cannulated for direct blood pressure measurement and i.v. administration of angiotensin I and compounds of this invention. After the basal blood pressure is stabilized, pressor response is to 3 challenge of 0.33 μg/kg of angiotensin I i.v., in 5 minutes intervals, are obtained. Such pressure responses are again obtained 5, 10, 15, 30 and 60 minutes after either i.v., or p.o. administration (stomach tube) of the compounds to be tested, and compared with the initial responses. […]

[2] = biological target: T1, angiotensin-converting enzyme (Oryctolagus cuniculus, UniProt P12822); test: in vitro inhibition of the angiotensin-converting enzyme; assay type: biochemical, rabbit
T1 construct: freshly prepared from lungs of adult male rabbits; from tissue; host or cells: lungs of adult male rabbits
T1 sequence (P12822 34-1310): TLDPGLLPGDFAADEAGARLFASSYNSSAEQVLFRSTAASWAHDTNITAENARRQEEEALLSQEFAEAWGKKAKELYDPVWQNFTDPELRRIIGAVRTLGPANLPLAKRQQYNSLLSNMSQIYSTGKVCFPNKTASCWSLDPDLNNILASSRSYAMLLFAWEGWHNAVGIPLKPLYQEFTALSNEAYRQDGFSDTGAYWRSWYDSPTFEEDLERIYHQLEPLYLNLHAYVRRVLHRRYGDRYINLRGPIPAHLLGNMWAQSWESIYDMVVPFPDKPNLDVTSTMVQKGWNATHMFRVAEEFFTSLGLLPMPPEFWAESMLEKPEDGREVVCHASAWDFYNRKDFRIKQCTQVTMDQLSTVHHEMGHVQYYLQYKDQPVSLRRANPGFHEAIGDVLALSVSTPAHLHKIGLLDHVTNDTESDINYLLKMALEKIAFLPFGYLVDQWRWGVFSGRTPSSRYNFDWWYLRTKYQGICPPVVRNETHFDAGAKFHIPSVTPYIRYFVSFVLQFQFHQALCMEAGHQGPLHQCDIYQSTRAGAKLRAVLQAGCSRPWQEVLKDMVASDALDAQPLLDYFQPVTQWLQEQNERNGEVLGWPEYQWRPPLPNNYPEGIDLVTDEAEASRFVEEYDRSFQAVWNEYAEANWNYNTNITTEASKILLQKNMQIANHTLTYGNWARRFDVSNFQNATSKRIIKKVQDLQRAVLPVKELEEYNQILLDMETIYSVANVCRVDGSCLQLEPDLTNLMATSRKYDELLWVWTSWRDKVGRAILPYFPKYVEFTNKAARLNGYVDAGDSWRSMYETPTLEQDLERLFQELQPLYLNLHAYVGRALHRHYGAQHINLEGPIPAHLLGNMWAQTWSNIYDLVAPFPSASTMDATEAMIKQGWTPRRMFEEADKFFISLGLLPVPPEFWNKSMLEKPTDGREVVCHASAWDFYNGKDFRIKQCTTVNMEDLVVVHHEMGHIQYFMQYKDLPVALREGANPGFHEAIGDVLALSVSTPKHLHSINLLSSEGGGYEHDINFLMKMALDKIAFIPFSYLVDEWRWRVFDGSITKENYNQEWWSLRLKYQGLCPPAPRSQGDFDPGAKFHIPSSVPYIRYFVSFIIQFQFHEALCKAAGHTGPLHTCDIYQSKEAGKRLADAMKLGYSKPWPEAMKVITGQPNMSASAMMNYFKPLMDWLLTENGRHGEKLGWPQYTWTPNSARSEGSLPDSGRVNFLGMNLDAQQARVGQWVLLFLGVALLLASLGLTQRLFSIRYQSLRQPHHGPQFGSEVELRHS
Description: Biophys. Acta 293, 451 (1973). According to this method said compounds are dissolved at about 1 mM concentrations in phosphate buffer, externally cooled with ice. To these solutions various μl amounts of 1 mM of histidyl-leucine in phosphate buffer are added, followed by 100 μl of 4mM hippuryl-histidyl-leucine in phosphate buffer and 50 μl of the angiotensin-converting enzyme, which is freshly prepared from lungs of adult male rabbits in Tris buffer, containing potassium and magnesium chloride, as well as sucrose. The solutions are incubated at 37° C. for 30 minutes and combined with 0.75 ml or 0.6 N aqueous sodium hydroxide to stop further reaction. Then 100 μl of o-phthalaldehyde are added at room temperature, and 10 minutes later 100 μl of 6N hydrochloric acid. These samples are read against water in a spectrophotometer set at 360 nm, and the optical densities thereof estimated. They are corrected for the standard curve via a conversion factor expressing nanomoles of histidyl-leucine formed during the 30 minute incubation period. The results are plotted against drug concentration to determine the IC50, i.e., the drug concentration which gives half the activity of the control sample containing no drug. Again, representative members of the compounds of this invention are very effective in this in vitro test system, down to IC50 values as low as 5 nM (5×10^-9 M).

IC50 [2]: ~6 nM
Compound: NCCCCN(C[C@@H](CCc1ccccc1)C(=O)O)C(=O)N1c2ccccc2C[C@H]1C(=O)O [Example 9, 1S-[(R)-N-(2-carboxy-4-phenylbutyl)-N-(4-aminobutyl)carbamoyl]-2,3-dihydroindole-2-carboxylic acid disodium salt]
inhibition of the angiotensin I induced hypertension [1]: virtually completely inhibits
